Test results as given in the supplement of paper PMC8960247.
Structures can show the parent of a compound that is named as a salt. ± gives the standard error.

Key:
621-102 (TSC2-deficient) = test: relative viability vs DMSO; higher = less cytotoxic; conditions: serum: 10% FBS, 72 h
621-103 (TSC2-rescued) = test: as above; conditions: serum: 10% FBS, 72 h
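Also: immortalized renal angiomyolipoma cells stably carrying empty vector or TSC2, dosed in 384-well plates in DMEM, viability normalized to vehicle-treated wells within each plate.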

| SMILES | relative viability (621-102 (TSC2-deficient); 0.0001 µM) | relative viability (621-102 (TSC2-deficient); 0.001 µM) | relative viability (621-102 (TSC2-deficient); 0.01 µM) | relative viability (621-102 (TSC2-deficient); 0.1 µM) | relative viability (621-102 (TSC2-deficient); 1 µM) | relative viability (621-102 (TSC2-deficient); 10 µM) | relative viability (621-103 (TSC2-rescued); 0.0001 µM) | relative viability (621-103 (TSC2-rescued); 0.001 µM) | relative viability (621-103 (TSC2-rescued); 0.01 µM) | relative viability (621-103 (TSC2-rescued); 0.1 µM) | relative viability (621-103 (TSC2-rescued); 1 µM) | relative viability (621-103 (TSC2-rescued); 10 µM) |
| --- | --- | --- | --- | --- | --- | --- | --- | --- | --- | --- | --- | --- |
| COc1ccc(-c2nc3cc(C4=NNC(=O)CC4C)ccc3[nH]2)cc1 (stereo not drawn) [Pimobendan (Vetmedin)] | 105.47 ± 0.018% | 106 ± 0.73% | 103 ± 2.5% | 108 ± 3.9% | 101 ± 2.5% | 87.99 ± 0.68% | 104 ± 2.3% | 101.7 ± 0.57% | 102.2 ± 0.15% | 100 ± 3.2% | 99.3 ± 3.6% | 84.13 ± 0.39% |
| CN1C(C(=O)Nc2ccccn2)=C(O)c2ccccc2S1(=O)=O [Piroxicam] | 98.4 ± 3.2% | 105 ± 8.5% | 111.3 ± 0.51% | 109 ± 4.4% | 103 ± 1.4% | 104 ± 9.8% | 110 ± 3% | 125 ± 2.3% | 126 ± 3.5% | 119.6 ± 0.1% | 112 ± 5% | 116.42 ± 0.082% |
| CCCN[C@H]1CCc2nc(N)sc2C1 [Pramipexole dihydrochloride monohydrate] | 91.3 ± 7.3% | 84.5 ± 4.2% | 101 ± 2.4% | 102 ± 1.4% | 91.4 ± 1.3% | 94.4 ± 1.9% | 98.1 ± 4.4% | 95.62 ± 0.72% | 101 ± 2.9% | 101 ± 1.8% | 105 ± 2.4% | 100.5 ± 0.52% |
| CCc1nc(N)nc(N)c1-c1ccc(Cl)cc1 [Pyrimethamine] | 99.7 ± 4.9% | 108.7 ± 0.4% | 95.6 ± 3.3% | 95.7 ± 2.5% | 100 ± 1.8% | 93.14 ± 0.75% | 105 ± 2% | 105.5 ± 0.94% | 104 ± 3.5% | 101 ± 2% | 104.3 ± 0.2% | 102 ± 4.4% |
| O=c1c(O)c(-c2ccc(O)c(O)c2)oc2cc(O)cc(O)c12 [Quercetin (Sophoretin)] | 64.8 ± 5.1% | 65.4 ± 7.3% | 68.4 ± 9.3% | 75 ± 10% | 78.2 ± 10% | 73.3 ± 5% | 87 ± 2% | 79.1 ± 1.4% | 88.6 ± 3.3% | 95.2 ± 6.2% | 89.4 ± 4.9% | 86.8 ± 1.1% |
| COc1cc(Nc2ncc(F)c(Nc3ccc4c(n3)NC(=O)C(C)(C)O4)n2)cc(OC)c1OC [R406 (free base)] | 114.2 ± 0.84% | 110 ± 2.3% | 105 ± 1.1% | 105 ± 1.2% | 105.4 ± 0.42% | 101 ± 2.1% | 99.45 ± 0.77% | 98.41 ± 0.3% | 101.7 ± 0.23% | 99.5 ± 1.3% | 98.1 ± 0.7% | 70.26 ± 0.23% |
| COc1cc(Nc2ncc(F)c(Nc3ccc4c(n3)NC(=O)C(C)(C)O4)n2)cc(OC)c1OC [R406] | 117 ± 2% | 110 ± 2.2% | 111 ± 1.2% | 109 ± 0.81% | 100.2 ± 0.76% | 117.2 ± 1.1% | 101 ± 1.9% | 100 ± 1.5% | 98.7 ± 1.4% | 99.27 ± 0.46% | 99.6 ± 1.3% | 89.7 ± 2.5% |
| CC(=O)SCC(Cc1ccccc1)C(=O)NCC(=O)OCc1ccccc1 (stereo not drawn) [Racecadotril] | 134 ± 1.7% | 120 ± 3.8% | 122 ± 1.8% | 107 ± 3.7% | 114 ± 5.8% | 113 ± 1.3% | 104 ± 4.4% | 95.5 ± 2% | 101 ± 4.2% | 101 ± 3.7% | 106 ± 1.2% | 99.3 ± 2.2% |
| FC(F)(F)c1ccc(Nc2nc3ccc(Oc4ccnc(-c5ncc(C(F)(F)F)[nH]5)c4)cc3[nH]2)cc1 [Raf265 derivative] | 113.2 ± 0.3% | 94.5 ± 1.8% | 106.8 ± 0.2% | 112 ± 4.1% | 102 ± 6.6% | 72.52 ± 0.56% | 110 ± 2.7% | 108 ± 6.7% | 94.7 ± 5% | 103 ± 5.7% | 101 ± 4.6% | 73.2 ± 7% |
| Cc1nnc(C(=O)NC(C)(C)c2nc(C(=O)NCc3ccc(F)cc3)c(O)c(=O)n2C)o1 [Raltegravir] | 106 ± 3.9% | 106 ± 3.1% | 108 ± 4.3% | 101.8 ± 0.33% | 110 ± 3.2% | 106 ± 3.2% | 99.5 ± 3% | 101 ± 1.5% | 100 ± 1.3% | 98.8 ± 1.3% | 101 ± 1.4% | 105 ± 2.1% |
| Cc1nc(=O)c2cc(CN(C)c3ccc(C(=O)N[C@@H](CCC(=O)O)C(=O)O)s3)ccc2[nH]1 [Raltitrexed (Tomudex)] | 86.7 ± 3.5% | 92.8 ± 1.6% | 107 ± 1.7% | 103.6 ± 0.8% | 92.5 ± 1.6% | 80.3 ± 1.2% | 99.1 ± 5.1% | 97.1 ± 4.5% | 115 ± 4.2% | 113 ± 1.8% | 102.7 ± 0.7% | 96.3 ± 3.2% |
| CCOC(=O)[C@H](CCc1ccccc1)N[C@@H](C)C(=O)N1[C@H](C(=O)O)C[C@@H]2CCC[C@@H]21 [Ramipril] | 107.5 ± 1% | 108 ± 2.2% | 102.3 ± 0.74% | 106 ± 4.6% | 108 ± 2.3% | 106.9 ± 0.7% | 104 ± 5.8% | 104 ± 2.4% | 92.3 ± 11% | 106 ± 0.85% | 102 ± 5% | 111 ± 1.6% |
| CNC(=C[N+](=O)[O-])NCCSCc1ccc(CN(C)C)o1 [Ranitidine HCl] | 103 ± 8.4% | 104 ± 0.46% | 101 ± 2.8% | 97.8 ± 2.7% | 105 ± 2.8% | 97.6 ± 0.51% | 107 ± 3.1% | 106 ± 3.6% | 103.5 ± 0.96% | 106 ± 1.3% | 103 ± 3% | 100.1 ± 0.51% |
| CO[C@H]1C[C@@H]2CC[C@@H](C)[C@@](O)(O2)C(=O)C(=O)N2CCCC[C@H]2C(=O)O[C@H]([C@H](C)C[C@@H]2CC[C@@H](O)[C@H](OC)C2)CC(=O)[C@H](C)/C=C(\C)[C@@H](O)[C@@H](OC)C(=O)[C@H](C)C[C@H](C)/C=C/C=C/C=C/1C [Rapamycin (Sirolimus)] | 37 ± 2.8% | 43.2 ± 5% | 38.8 ± 3.9% | 41.6 ± 2.9% | 44.6 ± 5.5% | 44.8 ± 2% | 80.829 ± 0.071% | 63.1 ± 2.6% | 70 ± 2.1% | 78.1 ± 1.8% | 71.36 ± 0.67% | 68.1 ± 2.8% |
| CC(NCCc1ccc(O)cc1)C(O)c1ccc(O)cc1 (stereo not drawn) [Ritodrine HCl] | 110 ± 1.6% | 112.1 ± 0.64% | 101 ± 2.7% | 100 ± 1.3% | 100 ± 1.4% | 102 ± 6.3% | 100 ± 5% | 98 ± 2.1% | 102 ± 2.8% | 98.2 ± 6.2% | 97.3 ± 6.2% | 86.5 ± 1.5% |
| CC(C)c1nc(CN(C)C(=O)N[C@H](C(=O)N[C@@H](Cc2ccccc2)C[C@H](O)[C@H](Cc2ccccc2)NC(=O)OCc2cncs2)C(C)C)cs1 [Ritonavir] | 106.1 ± 0.46% | 98.8 ± 4.8% | 105 ± 4.1% | 104 ± 1.4% | 100 ± 1.4% | 102 ± 2.6% | 99.5 ± 0.28% | 99.3 ± 1.5% | 98.8 ± 0.17% | 97.77 ± 0.48% | 97.6 ± 2.4% | 98.28 ± 0.37% |
| O=C(NC[C@H]1CN(c2ccc(N3CCOCC3=O)cc2)C(=O)O1)c1ccc(Cl)s1 [Rivaroxaban (Xarelto)] | 101 ± 5.5% | 104.4 ± 0.87% | 122.4 ± 0.29% | 117 ± 6.5% | 116 ± 1.6% | 120 ± 3.2% | 105 ± 2.4% | 116 ± 3.4% | 121 ± 1.5% | 117 ± 2.9% | 112 ± 1.1% | 104 ± 3.9% |
| CN(CCOc1ccc(CC2SC(=O)NC2=O)cc1)c1ccccn1 (stereo not drawn) [Rosiglitazone (Avandia)] | 112.8 ± 0.24% | 102 ± 8.2% | 99.4 ± 1% | 101 ± 3% | 102 ± 1.4% | 89.188 ± 0.073% | 97.1 ± 3.3% | 105 ± 2.9% | 102 ± 2.3% | 101 ± 3.8% | 105.9 ± 0.89% | 105 ± 1.4% |
| Cc1ccc(S(=O)(=O)OCC(=O)Nc2ccc(C(=O)O)c(O)c2)cc1 [S31-201] | 119.8 ± 0.59% | 125 ± 1.4% | 123 ± 3.5% | 121 ± 3.3% | 112 ± 1.6% | 119.2 ± 0.71% | 99.4 ± 2% | 98.17 ± 0.7% | 104 ± 2.1% | 102.7 ± 0.83% | 100 ± 1.8% | 101 ± 1.9% |
